# In US20220324835A1 (Nurix Therapeutics, Inc., priority 2018, published 2022):
# What was measured:
# T-cell [1] = assay: IL-2 secretion from T-cells stimulated with anti-CD3 antibody alone (Biological Example 2); format: cell-based; details: primary human total T-cells, read-out: IL-2 secretion, Anti-CD3 stimulation, fold change over baseline; for fold induction at 1 µM: 1 μM compound; for fold induction at 8 µM: 8 μM compound
# Cbl-b [2] = target: T1, Cbl-b (Homo sapiens, UniProt Q13191); assay: Cbl-b inhibition assay (Cbl-b activity assay, FRET, Biological Example 1; 100 mM NaCl, 60 nM Src kinase); format: biochemical; details: upper bound stated in text lists; read-out: IC50 values in the Cbl-b inhibition assay of Biological Example 1
# T1 sequence (Q13191 36-427): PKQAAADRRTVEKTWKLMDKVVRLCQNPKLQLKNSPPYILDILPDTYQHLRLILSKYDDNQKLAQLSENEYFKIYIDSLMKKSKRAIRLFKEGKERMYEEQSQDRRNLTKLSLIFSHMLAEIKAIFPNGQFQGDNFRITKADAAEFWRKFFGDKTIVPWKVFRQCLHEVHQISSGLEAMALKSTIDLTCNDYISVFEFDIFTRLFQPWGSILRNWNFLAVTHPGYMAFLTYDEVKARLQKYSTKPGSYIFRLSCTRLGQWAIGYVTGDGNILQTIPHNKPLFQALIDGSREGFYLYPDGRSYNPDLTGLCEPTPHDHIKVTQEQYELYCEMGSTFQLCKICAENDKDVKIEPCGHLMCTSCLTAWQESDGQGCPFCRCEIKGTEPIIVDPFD
# Summary of the method: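 FRET read-out: loss of signal marks inhibition. Mix = biotin-Avi-Cbl-b (N-term), Src kinase, UbcH5B-Ub(Bodipy-FL, irreversible conjugate), streptavidin-Tb, assay buffer.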
# T-cell [3] = assay: IL-2 secretion from T-cells co-stimulated with anti-CD3 and anti-CD28 antibody (Biological Example 2); format: cell-based, human; details: Homo sapiens, T-cell, primary human total T-cells, baseline = anti-CD3/anti-CD28 stimulated cells without inhibitor, read-out: IL-2 secretion, Anti-CD3/Anti-CD28 stimulation, fold change over baseline; for fold induction at 0.3 µM: 0.3 μM compound; for fold induction at 1 µM: 1 μM compound; for fold induction at 4 µM: 4 μM compound
# Summary of the method: (§1)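 T-cells were stimulated with anti-CD3 antibody alone or with anti-CD28 antibody, in the presence or absence of Cbl-b inhibitor. IL-2 secretion or CD25 surface staining was measured, and values expressed as fold over the uninhibited baseline […].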
# T-cell [4] = assay: CD25 cell surface staining on T-cells co-stimulated with anti-CD3 and anti-CD28 antibody (Biological Example 2); format: cell-based, human; details: Homo sapiens, T-cell, primary human total T-cells, baseline = anti-CD3/anti-CD28 stimulated cells without inhibitor, read-out: CD25 staining, Anti-CD3/Anti-CD28 stimulation, fold change over baseline; for fold induction at 0.3 µM: 0.3 μM compound; for fold induction at 1 µM: 1 μM compound; for fold induction at 4 µM: 4 μM compound
# Summary of the method: as §1
# Cbl-b [5] = target: T1, Cbl-b; assay: Cbl-b activity assay (Cbl-b inhibition assay), TR-FRET of Cbl-b interaction with UbcH5B-Ub; format: biochemical; details: assay buffer with 100 mM NaCl, 60 nM Src kinase; read-out: Cbl-b activity IC50
# Summary of the method: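 UbcH5B (C85K) conjugated to N-terminally Bodipy-Fluorescein-labeled ubiquitin served as the fluorescent partner. After compound preincubation, Src kinase (60 nM) with 1 mM ATP and 5 mM MgCl2 (final) was added for 1.5 h, followed by a further 1 h incubation. Some values were obtained with 50 mM NaCl and 30 nM Src.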
# T-cell [6] = assay: CD25 cell surface staining on T-cells stimulated with anti-CD3 antibody alone (Biological Example 2); format: cell-based; details: primary human total T-cells, baseline = anti-CD3/anti-CD28 stimulated cells without inhibitor, read-out: CD25 staining, Anti-CD3 stimulation, fold change over baseline; for fold induction at 1 µM: 1 μM compound; for fold induction at 8 µM: 8 μM compound
structure (smiles),measurement,setting,value
"Cn1cnnc1CC1(c2cccc(N3Cc4c(cc(CN5CCCC5=O)cc4C(F)(F)F)C3=O)c2)COC1 [Compound 426, 2-(3-(3-((4-methyl-4H-1,2,4-triazol-3-yl)methyl)oxetan-3-yl)phenyl)-6-((2-oxopyrrolidin-1-yl)methyl)-4-(trifluoromethyl)isoindolin-1-one]",fold induction at 1 µM,T-cell [1],0.151 to 0.2
same,fold induction at 8 µM,T-cell [1],> 0.201
same,IC50,Cbl-b [2],≤ 100 nM
same,fold induction at 0.3 µM,T-cell [3],1.01 to 2.5
same,fold induction at 1 µM,T-cell [3],1.01 to 2.5
same,fold induction at 4 µM,T-cell [3],2.51 to 5
same,fold induction at 0.3 µM,T-cell [4],1.01 to 1.3
same,fold induction at 1 µM,T-cell [4],1.01 to 1.3
same,fold induction at 4 µM,T-cell [4],1.01 to 1.3
same,IC50,Cbl-b [5],< 100 nM
same,fold induction at 1 µM,T-cell [6],> 1
same,fold induction at 8 µM,T-cell [6],> 1
C[C@H]1C=CCN1Cc1cc2c(c(C(F)(F)F)c1)CN(c1cccc(C3(Cc4nncn4C)COC3)c1)C2=O [Compound 427],fold induction at 1 µM,T-cell [1],> 0.201
same,fold induction at 8 µM,T-cell [1],> 0.201
same,IC50,Cbl-b [2],≤ 100 nM
same,fold induction at 0.3 µM,T-cell [3],> 7.5
same,fold induction at 1 µM,T-cell [3],> 7.5
same,fold induction at 4 µM,T-cell [3],> 7.5
same,fold induction at 0.3 µM,T-cell [4],1.31 to 1.5
same,fold induction at 1 µM,T-cell [4],1.51 to 1.75
same,fold induction at 4 µM,T-cell [4],1.51 to 1.75
same,IC50,Cbl-b [5],< 100 nM
same,fold induction at 1 µM,T-cell [6],> 1
same,fold induction at 8 µM,T-cell [6],> 1
Cn1cnnc1CC1(c2cccc(N3Cc4c(cc(CN5CC(C(=O)O)C5)cc4C(F)(F)F)C3=O)c2)COC1 [Compound 428],fold induction at 1 µM,T-cell [1],0.151 to 0.2
same,fold induction at 8 µM,T-cell [1],> 0.201
same,IC50,Cbl-b [2],≤ 100 nM
same,fold induction at 0.3 µM,T-cell [3],1.01 to 2.5
same,fold induction at 1 µM,T-cell [3],1.01 to 2.5
same,fold induction at 4 µM,T-cell [3],1.01 to 2.5
same,fold induction at 0.3 µM,T-cell [4],1.01 to 1.3
same,fold induction at 1 µM,T-cell [4],1.01 to 1.3
same,fold induction at 4 µM,T-cell [4],1.01 to 1.3
same,IC50,Cbl-b [5],< 100 nM
same,fold induction at 1 µM,T-cell [6],0.801 to 1
same,fold induction at 8 µM,T-cell [6],> 1
"CC(c1cc2c(c(C(F)(F)F)c1)CN(c1cccc(C3(Cc4nncn4C)COC3)c1)C2=O)N1CC(S(C)(=O)=O)C1 (stereo not drawn) [Compound 430, 2-(3-(3-((4-methyl-4H-1,2,4-triazol-3-yl)methyl)oxetan-3-yl)phenyl)-6-(l-(3-(methylsulfonyl)azetidin-1-yl)ethyl)-4-(trifluoromethyl)isoindolin-1-one]",fold induction at 1 µM,T-cell [1],0.101 to 0.15
same,IC50,Cbl-b [2],≤ 100 nM
same,fold induction at 0.3 µM,T-cell [3],1.01 to 2.5
same,fold induction at 1 µM,T-cell [3],1.01 to 2.5
same,fold induction at 0.3 µM,T-cell [4],1.01 to 1.3
same,fold induction at 1 µM,T-cell [4],1.01 to 1.3
same,IC50,Cbl-b [5],< 100 nM
same,fold induction at 1 µM,T-cell [6],0.601 to 0.8
"Cn1cnnc1CC1(c2cccc(N3Cc4c(cc(CN5CCOCC5)cc4C(F)(F)F)C3=O)c2)COC1 [Compound 431, 2-(3-{3-[(4-methyl-4H-1,2,4-triazol-3-yl)methyl]oxetan-3-yl}phenyl)-6-[(morpholin-4-yl)methyl]-4-(trifluoromethyl)-2,3-dihydro-1H-isoindol-1-one]",fold induction at 1 µM,T-cell [1],> 0.201
same,IC50,Cbl-b [2],≤ 100 nM
same,fold induction at 0.3 µM,T-cell [3],2.51 to 5
same,fold induction at 1 µM,T-cell [3],> 7.5
same,fold induction at 0.3 µM,T-cell [4],1.31 to 1.5
same,fold induction at 1 µM,T-cell [4],1.31 to 1.5
same,IC50,Cbl-b [5],< 100 nM
same,fold induction at 1 µM,T-cell [6],> 1
"Cn1cnnc1CC1(c2cccc(N3Cc4c(cc(CN5CCCC56COC6)cc4C(F)(F)F)C3=O)c2)COC1 [Compound 433, 2-(3-{3-[(4-methyl-4H-1,2,4-triazol-3-yl)methyl]oxetan-3-yl}phenyl)-6-({2-oxa-5-azaspiro[3,4]octan-5-yl}methyl)-4-(trifluoromethyl)-2,3-dihydro-1H-isoindol-1-one]",fold induction at 1 µM,T-cell [1],0.151 to 0.2
same,IC50,Cbl-b [2],≤ 100 nM
same,fold induction at 0.3 µM,T-cell [3],1.01 to 2.5
same,fold induction at 1 µM,T-cell [3],5 to 7.5
same,fold induction at 0.3 µM,T-cell [4],1.01 to 1.3
same,fold induction at 1 µM,T-cell [4],1.31 to 1.5
same,IC50,Cbl-b [5],< 100 nM
same,fold induction at 1 µM,T-cell [6],0.801 to 1
"Cn1cnnc1CC1(c2cccc(N3Cc4c(cc(CN5CCS(=O)(=O)CC5)cc4C(F)(F)F)C3=O)c2)COC1 [Compound 434, 4-{[2-(3-{3-[(4-methyl-4H-1,2,4-triazol-3-yl)methyl]oxetan-3-yl}phenyl)-3-oxo-7-(trifluoromethyl)-2,3-dihydro-1H-isoindol-5-yl]methyl}-1λ^6-thiomorpholine-1,1-dione]",fold induction at 1 µM,T-cell [1],0.101 to 0.15
same,IC50,Cbl-b [2],≤ 100 nM
same,fold induction at 0.3 µM,T-cell [3],2.51 to 5
same,fold induction at 1 µM,T-cell [3],2.51 to 5
same,fold induction at 0.3 µM,T-cell [4],1.01 to 1.3
same,fold induction at 1 µM,T-cell [4],1.01 to 1.3
same,IC50,Cbl-b [5],< 100 nM
same,fold induction at 1 µM,T-cell [6],> 1
